Reference: patent US20070179143A1 (priority 2003, published 2007)

How the values were obtained:
[1] = system: HCT-15; experiment: Cytotoxicity test to cancer cell lines (SRB method), HCT-15; conditions: Homo sapiens, HCT-15, 48 h, read-out: Cytotoxicity ED50 HCT15
Description: (§1) Cytotoxicity to A549 (Korea Research Institute of Chemical Technology), SK-OV-3 (Korea Research Institute of Chemical Technology), SK-MEL-2 (Korea Research Institute of Chemical Technology), HCT-15 (Korea Research Institute of Chemical Technology) and MCF7 (Korean Cell Line Bank, Seoul National University School of medicine) cells was measured by Sulforhodamin-B (SRB) method (1989, National Cancer Institute (NCI)) which was developed for the measurement of in vitro anticancer activity of a drug. Cells were separated using 0.25% trypsin-EDTA solution, leading to the preparation of a cell suspension by 5×10^318 2×10^4 cells/well. Then, the suspension was distributed into a 96 well plate by 100 μl/well, which was cultured in a 37° C., 5% CO2 incubator for 24 hours. Compounds prepared in examples of the present invention were used as a sample. Precisely, the compound was dissolved in dimethylsulfoxide and diluted with RPMI 1640 medium before being used as a sample. The final concentration of the sample used varied ranging 1 μM˜0.00001 μM. The medium was removed from the 96 well plate and then diluted sample solution was added by 100 μl/well, followed by further culture in a 37° C., 5% CO2 incubator for 48 hours. Tz (time zero) plate was collected from the point of adding the sample. Upon completing the culture, the medium was removed from each well along with Tz plate, then 10% trichloroacetic acid (TCA) was added by 100 μl/well. The plate was left at 4° C. for 1 hour to let cells be fixed on the floor of the plate. After cells were fixed completely, the plate was washed with water 5-6 times to remove the remaining trichloroacetic acid solution completely and moisture was completely dried at room temperature. 0.4% Sulforhodamine-B was dissolved in 1% acetic acid solution to prepare a staining solution. Cells were stained for 30 minutes with a dye added by 100 μl to each well of the completely dried plate. Then, the plate was washed with 1% acetic acid solution 5-6 times to remove sulforhodamine-B remained uncombined with cells. Then, the plate was dried at room temperature. 10 mM Tris solution was added by 100 μ/well thereto to dissolve the dye, and optical density (OD) was measured at 520 nm with a micro plate reader.
(§2) ED50 (concentration that inhibits cancer cell growth 50%, 5.0% effective dose, nM/ml) of the sample to cancer cell was calculated as follows. OD value at the point of beginning the culture with the sample was determined as Tz (time zero) value. OD value of a well to be cultured without the sample was determined as a control value (C). OD value of a well pretreated with the sample was determined as experimental value (T). After calculating Tz, C and T, cytotoxicity of the sample was measured by the below <Mathematical Formula 1>. T≦Tz, (T−Tz)/(C−Tz)×100 T>Tz, (T−Tz)/Tz×10,0 <Mathematical Formula 1>
(§3) ED50, the concentration that can inhibit cancer cell growth by 50%, was calculated by using a regression analysis of lotus program based on the degree of cytotoxicity obtained by the <Mathematical Formula 1>.

[2] = system: SK-OV-3; experiment: Cytotoxicity test to cancer cell lines (SRB method), SK-OV-3; type: cell-based; conditions: Homo sapiens, SK-OV-3, 48 h, read-out: Cytotoxicity ED50 SK-OV-3
[3] = system: SK-MEL-2; experiment: Cytotoxicity test to cancer cell lines (SRB method), SK-MEL-2; type: cell-based; conditions: Homo sapiens, SK-MEL-2, 48 h, read-out: Cytotoxicity ED50 SK-MEL-2
[4] = system: A549; experiment: Cytotoxicity test to cancer cell lines (SRB method), A549; conditions: Homo sapiens, A549, 48 h, read-out: Cytotoxicity ED50 A549
Description: as §1, §2, §3

[5] = system: MCF7; experiment: Cytotoxicity test to cancer cell lines (SRB method), MCF7; conditions: read-out: Cytotoxicity ED50 MCF-7, MCF-7, 48 hours
Description: as §1, §2, §3

Compound	EC50 [1]	EC50 [2]	EC50 [3]	EC50 [4]	EC50 [5]
COc1cc2c(c(OC)c1OC)-c1ccc(SC)c(=O)cc1[C@@H](NC(=O)c1ccc(CO[N+](=O)[O-])nc1)CC2 [Example 1, 6-nitrooxymethyl-N-[(7S)-1,2,3-trimethoxy-10-methylsulfanyl-9-oxo-5,6,7,9-tetrahydro-benzo[a]heptalen-7-yl]-nicotineamide]	0.6 nM	1 nM	0.4 nM	1.8 nM	
COc1cc2c(c(OC)c1OC)-c1ccc(SC)c(=O)cc1[C@@H](NC(=O)c1ccc(CO[N+](=O)[O-])o1)CC2 [Example 2, 5-nitrooxymethyl-furan-2-carboxylic acid-[(7S)-1,2,3-trimethoxy-10-methylsulfanyl-9-oxo-5,6,7,9-tetrahydro-benzo[a]heptalen-7-yl]-amide]	2.3 nM	9.3 nM	5.4 nM	15.8 nM	2.9 nM
COc1cc2c(c(OC)c1OC)-c1ccc(SC)c(=O)cc1[C@@H](NC(=O)c1cccc(CO[N+](=O)[O-])n1)CC2 [Example 5, 6-nitrooxymethyl-pyridine-2-carboxylic acid-[(7S)-1,2,3-trimethoxy-10-methylsulfanyl-9-oxo-5,6,7,9-tetrahydro-benzo[a]heptalen-7-yl]-amide]	4.4 nM	1 nM	3.1 nM	1 nM	
COc1cc2c(c(OC)c1OC)-c1ccc(SC)c(=O)cc1[C@@H](NC(=O)c1ccc(F)c(CO[N+](=O)[O-])c1)CC2 [Example 16, 4-fluoro-3-nitrooxymethyl-N-[(7S)-1,2,3-trimethoxy-10-methylsulfanyl-9-oxo-5,6,7,9-tetrahydro-benzo[a]heptalen-7-yl]-benzamide]	1 nM	1 nM	1 nM	1.6 nM	
COc1cc2c(c(OC)c1OC)-c1ccc(SC)c(=O)cc1[C@@H](NC(=O)c1cc(O)cc(CO[N+](=O)[O-])c1)CC2 [Example 18, 3-hydroxy-5-nitrooxymethyl-N-[(7S)-1,2,3-trimethoxy-10-methylsulfanyl-9-oxo-5,6,7,9-tetrahydro-benzo[a]heptalen-7-yl]-benzamide]	5.3 nM	3.8 nM	1 nM	8.1 nM	
COc1cc2c(c(OC)c1OC)-c1ccc(SC)c(=O)cc1[C@@H](NC(=O)c1ccc(COC(=O)c3cccc(O[N+](=O)[O-])c3)nc1)CC2 [Example 25, 3-nitrooxy-benzoic acid-5-[(7S)-1,2,3-trimethoxy-10-methylsulfanyl-9-oxo-5,6,7,9-tetrahydro-benzo[a]heptalen-7-yl-carbamoyl]-pyridine-2-yl-methylester]	15 nM	5.4 nM	14 nM	8.8 nM	
COc1cc2c(c(OC)c1OC)-c1ccc(SC)c(=O)cc1[C@@H](NC(=O)c1ccc(COC(=O)CCCO[N+](=O)[O-])nc1)CC2 [Example 26, 4-nitrooxybutyric acid-5-[(7S)-1,2,3-trimethoxy-10-methylsulfanyl-9-oxo-5,6,7,9-tetrahydro-benzo[a]heptalen-7-yl-carbamoyl]-pyridine-2-yl-methylester]	> 50 nM	> 50 nM	47 nM	21 nM	
COc1cc2c(c(OC)c1OC)-c1ccc(SC)c(=O)cc1[C@@H](NC(=O)c1cccc(COC(=O)c3cccc(CO[N+](=O)[O-])c3)n1)CC2 [Example 27, 3-nitrooxymethyl-benzoicacid-6-[(7S) -1,2,3-trimethoxy-10-methylsulfanyl-9-oxo-5,6,7,9-tetrahydro-benzo[a]heptalen-7-yl-carbamoyl]-pyridine-2-yl-methylester]	2 nM	16 nM	7 nM	5 nM	
COc1cc2c(c(OC)c1OC)-c1ccc(SC)c(=O)cc1[C@@H](NC(=O)c1cccc(COC(=O)CCCO[N+](=O)[O-])n1)CC2 [Example 28, 4-nitrooxybutyric acid-6-[(7S)-1,2,3-trimethoxy-10-methylsulfanyl-9-oxo-5,6,7,9-tetrahydro-benzo[a]heptalen-7-yl-carbamoyl]-pyridine-2-yl-methylester]	3 nM	15 nM	4 nM	6 nM	
COc1cc2c(c(OC)c1OC)-c1ccc(SC)c(=O)cc1[C@@H](NC(=O)c1ccccc1OC(=O)c1cccc(CO[N+](=O)[O-])c1)CC2 [Example 29, 3-nitrooxymethyl-benzoic acid-2-[(7S)-1,2,3-trimethoxy-10-methylsulfanyl-9-oxo-5,6,7,9-tetrahydro-benzo[a]heptalen-7-yl-carbamoyl]-phenylester]	0.8 nM	3 nM	0.9 nM	1.1 nM	
COc1cc2c(c(OC)c1OC)-c1ccc(SC)c(=O)cc1[C@@H](NC(=O)c1ccccc1OC(=O)CCCO[N+](=O)[O-])CC2 [Example 30, 4-nitrooxybutyric acid-2-[(7S)-1,2,3-trimethoxy-10-methylsulfanyl-9-oxo-5,6,7,9-tetrahydro-benzo[a]heptalen-7-yl-carbamoyl]-phenylester]	5.2 nM	8.2 nM	3.6 nM	3.6 nM	
COc1cc2c(c(OC)c1OC)-c1ccc(SC)c(=O)cc1[C@@H](NC(=O)c1cccc(OC(=O)c3cccc(CO[N+](=O)[O-])c3)c1)CC2 [Example 31, 3-nitrooxymethyl-benzoic acid-3-[(7S)-1,2,3-trimethoxy-10-methylsulfanyl-9-oxo-5,6,7,9-tetrahydro-benzo[a]heptalen-7-yl-carbamoyl]-phenylester]	0.8 nM	3 nM	0.9 nM	1.1 nM	
COc1cc2c(c(OC)c1OC)-c1ccc(SC)c(=O)cc1[C@@H](NC(=O)c1cccc(OC(=O)CCCO[N+](=O)[O-])c1)CC2 [Example 32, 4-nitrooxybutyric acid-3-[(7S)-1,2,3-trimethoxy-10-methylsulfanyl-9-oxo-5,6,7,9-tetrahydro-benzo[a]heptalen-7-yl-carbamoyl]-phenylester]	0.08 nM	1 nM	0.05 nM	6.2 nM	
COc1cc2c(c(OC)c1OC)-c1ccc(SC)c(=O)cc1[C@@H](NC(=O)c1cccc(COC(=O)c3cccc(CO[N+](=O)[O-])c3)c1)CC2 [Example 33]	1 nM	6.6 nM	2.9 nM	3.8 nM	
COc1cc2c(c(OC)c1OC)-c1ccc(SC)c(=O)cc1[C@@H](NC(=O)c1cccc(CON=O)c1)CC2 [Example 36, 3-nitrosooxymethyl-N-[(7S)-1,2,3-trimethoxy-10-methylsulfanyl-9-oxo-5,6,7,9-tetrahydro-benzo[a]heptalen-7-yl]-benzamide]	0.7 nM	1.1 nM	0.1 nM	2.9 nM	
COc1cc2c(c(OC)c1OC)-c1ccc(SC)c(=O)cc1[C@@H](NC(=O)c1cccc(CSN=O)c1)CC2 [Example 38, 3-nitrosothiomethyl-N-[(7S)-1,2,3-trimethoxy-10-methylsulfanyl-9-oxo-5,6,7,9-tetrahydro-benzo[a]heptalen-7-yl]-benzamide]	3 nM	4.1 nM	3.3 nM	2.4 nM	
